Laboratory results as given in patent publication US20170015696A1, “SOLID STATE FORMS OF SOFOSBUVIR” (RATIOPHARM GMBH, priority 2014, published 2017).

Experiment: Storage stability of the solid state form at ambient conditions
Assay type: physicochemical
Conditions: stored at ambient conditions (e.g., 1 atmosphere at RT)
Excerpt: Form A has certain advantageous properties as discussed above. Particularly, form A is stable for a period of 16 months when stored at ambient conditions (e.g., 1 atmosphere at RT).

## CC(C)OC(=O)[C@H](C)N[P@](=O)(OC[C@H]1O[C@@H](n2ccc(=O)[nH]c2=O)[C@](C)(F)[C@@H]1O)Oc1ccccc1 [form A, Sofosbuvir]
  period for which the form is stable when stored: 16 months
